How the values were obtained:
Settings in all cases: 48 h
P12-Ichikawa [1] = experiment: cell viability relative to DMSO control; higher = less cytotoxic
Summary of the method: (§1)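 In 1536-well plates, 5 μl of leukemia cells were seeded per well: 500 cells/well for NOMO1 or SEM and 1000 cells/well for P12-Ichikawa. Each line had first been adapted for at least four passages in each medium. Library compounds in DMSO were pin-dosed at 11 threefold concentrations between 47 μM and 0.79 nM, and CellTiter-Glo One luminescence was read after 48 h at 37°C. Viability is a per-plate percentage relative to DMSO wells, with cell-free wells as background.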

SEM cells [2] = experiment: as above
Summary of the method: as §1

NOMO1 [3] = experiment: as above
Summary of the method: as §1

P12-Ichikawa [4] = experiment: AUC of viability dose-response curve (% viability x log10 dose units); higher = less sensitive
Summary of the method: (§2)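 Medium-adapted leukemia cells in 1536-well plates, at 500 or 1000 cells/well, were incubated for 48 h at 37°C with library compounds in DMSO at 11 threefold doses from 47 μM to 0.79 nM. CellTiter-Glo One luminescence normalised per plate to DMSO and cell-free wells was fitted with a four-parameter log-logistic model over log10 doses. Area under the curve was integrated from this fit by trapezoidal rule, with curves beyond full viability scaled and failed quality-control curves removed.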

SEM cells [5] = experiment: as above
Summary of the method: as §2

NOMO1 [6] = experiment: as above
Summary of the method: as §2

Cc1noc(N[S+](=O)([O-])c2ccc(N)cc2)c1C
cell viability [%]
Settings | NOMO1 [3] | P12-Ichikawa [1] | SEM cells [2]
HPLM + 10% dialyzed FBS, 0.000781 µM | 92.3 | 99.4 | 80.2
HPLM + 10% dialyzed FBS, 0.00234 µM | 91.3 | 106 | 93.5
HPLM + 10% dialyzed FBS, 0.00702 µM | 109 | 104 | 104
HPLM + 10% dialyzed FBS, 0.0211 µM | 97.9 | 112 | 88.1
HPLM + 10% dialyzed FBS, 0.0632 µM | 95.6 | 115 | 93.2
HPLM + 10% dialyzed FBS, 0.19 µM | 101 | 109 | 102
HPLM + 10% dialyzed FBS, 0.569 µM | 109 | 111 | 83.1
HPLM + 10% dialyzed FBS, 1.71 µM | 114 | 114 | 96.3
HPLM + 10% dialyzed FBS, 5.12 µM | 96 | 109 | 99.8
HPLM + 10% dialyzed FBS, 15.4 µM | 92 | 102 | 90.1
HPLM + 10% dialyzed FBS, 46.1 µM | 104 | 117 | 102
RPMI 5 mM glucose + 10% FBS, 0.000781 µM | 98 | 85.2 | 87.6
RPMI 5 mM glucose + 10% FBS, 0.00234 µM | 92.7 | 102 | 97.5
RPMI 5 mM glucose + 10% FBS, 0.00702 µM | 88.6 | 97.6 | 89.7
RPMI 5 mM glucose + 10% FBS, 0.0211 µM | 89.5 | 91.2 | 88.5
RPMI 5 mM glucose + 10% FBS, 0.0632 µM | 108 | 99.8 | 96.2
RPMI 5 mM glucose + 10% FBS, 0.19 µM | 102 | 105 | 110
RPMI 5 mM glucose + 10% FBS, 0.569 µM | 113 | 98.1 | 96
RPMI 5 mM glucose + 10% FBS, 1.71 µM | 111 | 94.1 | 114
RPMI 5 mM glucose + 10% FBS, 5.12 µM | 106 | 102 | 98
RPMI 5 mM glucose + 10% FBS, 15.4 µM | 91.6 | 96.8 | 100
RPMI 5 mM glucose + 10% FBS, 46.1 µM | 104 | 100 | 92.3
RPMI 5 mM glucose + 10% dialyzed FBS, 0.000781 µM | 92.3 | 92.4 | 99.2
RPMI 5 mM glucose + 10% dialyzed FBS, 0.00234 µM | 90.7 | 90.5 | 91.5
RPMI 5 mM glucose + 10% dialyzed FBS, 0.00702 µM | 71.5 | 99.5 | 96.3
RPMI 5 mM glucose + 10% dialyzed FBS, 0.0211 µM | 92.6 | 89.7 | 89.5
RPMI 5 mM glucose + 10% dialyzed FBS, 0.0632 µM | 89 | 106 | 120
RPMI 5 mM glucose + 10% dialyzed FBS, 0.19 µM | 89.7 | 106 | 103
RPMI 5 mM glucose + 10% dialyzed FBS, 0.569 µM | 92.6 | 108 | 111
RPMI 5 mM glucose + 10% dialyzed FBS, 1.71 µM | 96.2 | 99.3 | 104
RPMI 5 mM glucose + 10% dialyzed FBS, 5.12 µM | 90.3 | 101 | 103
RPMI 5 mM glucose + 10% dialyzed FBS, 15.4 µM | 94.6 | 94.1 | 108
RPMI 5 mM glucose + 10% dialyzed FBS, 46.1 µM | 81.4 | 98.9 | 99.1

AUC of viability dose-response curve
Settings | NOMO1 [6] | P12-Ichikawa [4] | SEM cells [5]
HPLM + 10% dialyzed FBS | 464 | 460 | 448
RPMI 5 mM glucose + 10% FBS | 457 | 468 | 457
RPMI 5 mM glucose + 10% dialyzed FBS | 426 | 463 | 456

C#CCC(Cc1cnc2nc(N)nc(N)c2n1)c1ccc(C(=O)N[C@@H](CCC(=O)O)C(=O)O)cc1 (some centres not stated)
cell viability [%]
Settings | NOMO1 [3] | P12-Ichikawa [1] | SEM cells [2]
HPLM + 10% dialyzed FBS, 0.000781 µM | 124 | – | 110
HPLM + 10% dialyzed FBS, 0.00234 µM | 114 | – | 113
HPLM + 10% dialyzed FBS, 0.00702 µM | 130 | – | 114
HPLM + 10% dialyzed FBS, 0.0211 µM | 128 | – | 119
HPLM + 10% dialyzed FBS, 0.0632 µM | 93.6 | – | 47
HPLM + 10% dialyzed FBS, 0.19 µM | 52 | – | 48
HPLM + 10% dialyzed FBS, 0.569 µM | 45.8 | – | 39.2
HPLM + 10% dialyzed FBS, 1.71 µM | 49.4 | – | 36.3
HPLM + 10% dialyzed FBS, 5.12 µM | 45.1 | – | 31.9
HPLM + 10% dialyzed FBS, 15.4 µM | 54.7 | – | 38.1
HPLM + 10% dialyzed FBS, 46.1 µM | 49.7 | – | 35.1
RPMI 5 mM glucose + 10% FBS, 0.000781 µM | 127 | 125 | 113
RPMI 5 mM glucose + 10% FBS, 0.00234 µM | 122 | 119 | 122
RPMI 5 mM glucose + 10% FBS, 0.00702 µM | 122 | 128 | 120
RPMI 5 mM glucose + 10% FBS, 0.0211 µM | 123 | 128 | 118
RPMI 5 mM glucose + 10% FBS, 0.0632 µM | 114 | 44.8 | 90.6
RPMI 5 mM glucose + 10% FBS, 0.19 µM | 97.7 | 47.4 | 73.3
RPMI 5 mM glucose + 10% FBS, 0.569 µM | 73.9 | 29.9 | 74.1
RPMI 5 mM glucose + 10% FBS, 1.71 µM | 77.1 | 27.4 | 71.9
RPMI 5 mM glucose + 10% FBS, 5.12 µM | 78.4 | 23.9 | 66.7
RPMI 5 mM glucose + 10% FBS, 15.4 µM | 72.4 | 29 | 68.1
RPMI 5 mM glucose + 10% FBS, 46.1 µM | 74.9 | 30.8 | 68
RPMI 5 mM glucose + 10% dialyzed FBS, 0.000781 µM | – | 120 | 105
RPMI 5 mM glucose + 10% dialyzed FBS, 0.00234 µM | – | 110 | 114
RPMI 5 mM glucose + 10% dialyzed FBS, 0.00702 µM | – | 115 | 110
RPMI 5 mM glucose + 10% dialyzed FBS, 0.0211 µM | – | 125 | 107
RPMI 5 mM glucose + 10% dialyzed FBS, 0.0632 µM | – | 37.1 | 27.4
RPMI 5 mM glucose + 10% dialyzed FBS, 0.19 µM | – | 25.6 | 23.5
RPMI 5 mM glucose + 10% dialyzed FBS, 0.569 µM | – | 20.2 | 24.3
RPMI 5 mM glucose + 10% dialyzed FBS, 1.71 µM | – | 19.9 | 23
RPMI 5 mM glucose + 10% dialyzed FBS, 5.12 µM | – | 17.2 | 20.3
RPMI 5 mM glucose + 10% dialyzed FBS, 15.4 µM | – | 20.3 | 22.9
RPMI 5 mM glucose + 10% dialyzed FBS, 46.1 µM | – | 19 | 22.3

AUC of viability dose-response curve
Settings | NOMO1 [6] | P12-Ichikawa [4] | SEM cells [5]
HPLM + 10% dialyzed FBS | 307 | 227 | 274
RPMI 5 mM glucose + 10% FBS | 380 | 250 | 358
RPMI 5 mM glucose + 10% dialyzed FBS | 265 | 228 | 232

N[C@@H]1C[C@H]1c1ccccc1
SEM cells [2], HPLM + 10% dialyzed FBS
Settings | cell viability [%]
0.000781 µM | 122
0.00234 µM | 115
0.00702 µM | 148
0.0211 µM | 124
0.0632 µM | 107
0.19 µM | 137
0.569 µM | 131
1.71 µM | 119
5.12 µM | 107
15.4 µM | 117
46.1 µM | 109

AUC of viability dose-response curve
Settings | NOMO1 [6] | P12-Ichikawa [4] | SEM cells [5]
HPLM + 10% dialyzed FBS | 464 | 437 | 449
RPMI 5 mM glucose + 10% FBS | 468 | 462 | 456
RPMI 5 mM glucose + 10% dialyzed FBS | 465 | 459 | 457

COc1cc2c(cc1OC)CN(CCc1ccc(NC(=O)c3cccc4c(=O)c5cccc(OC)c5[nH]c34)cc1)CC2
cell viability [%]
Settings | NOMO1 [3] | P12-Ichikawa [1] | SEM cells [2]
HPLM + 10% dialyzed FBS, 0.000781 µM | 97.2 | 101 | 84.4
HPLM + 10% dialyzed FBS, 0.00234 µM | 96.8 | 105 | 98.8
HPLM + 10% dialyzed FBS, 0.00702 µM | 114 | 107 | 103
HPLM + 10% dialyzed FBS, 0.0211 µM | 121 | 118 | 105
HPLM + 10% dialyzed FBS, 0.0632 µM | 122 | 111 | 106
HPLM + 10% dialyzed FBS, 0.19 µM | 121 | 112 | 109
HPLM + 10% dialyzed FBS, 0.569 µM | 109 | 123 | 105
HPLM + 10% dialyzed FBS, 1.71 µM | 45 | 21.1 | 105
HPLM + 10% dialyzed FBS, 5.12 µM | 29.8 | 11.5 | 36.4
HPLM + 10% dialyzed FBS, 15.4 µM | 16.8 | 5 | 8.23
HPLM + 10% dialyzed FBS, 46.1 µM | 11.3 | 3.03 | 5.66
RPMI 5 mM glucose + 10% FBS, 0.000781 µM | 123 | 96.9 | 91.1
RPMI 5 mM glucose + 10% FBS, 0.00234 µM | 112 | 101 | 85.9
RPMI 5 mM glucose + 10% FBS, 0.00702 µM | 127 | 102 | 82.9
RPMI 5 mM glucose + 10% FBS, 0.0211 µM | 118 | 111 | 90.8
RPMI 5 mM glucose + 10% FBS, 0.0632 µM | 119 | 109 | 77.2
RPMI 5 mM glucose + 10% FBS, 0.19 µM | 116 | 112 | 83.5
RPMI 5 mM glucose + 10% FBS, 0.569 µM | 122 | 113 | 85.2
RPMI 5 mM glucose + 10% FBS, 1.71 µM | 112 | 119 | 9.76
RPMI 5 mM glucose + 10% FBS, 5.12 µM | 62.8 | 25.2 | 8.45
RPMI 5 mM glucose + 10% FBS, 15.4 µM | 23.7 | 5.14 | 5.57
RPMI 5 mM glucose + 10% FBS, 46.1 µM | 14.1 | 2.82 | 4.07
RPMI 5 mM glucose + 10% dialyzed FBS, 0.000781 µM | 112 | 104 | 108
RPMI 5 mM glucose + 10% dialyzed FBS, 0.00234 µM | 114 | 109 | 112
RPMI 5 mM glucose + 10% dialyzed FBS, 0.00702 µM | 127 | 112 | 104
RPMI 5 mM glucose + 10% dialyzed FBS, 0.0211 µM | 113 | 111 | 112
RPMI 5 mM glucose + 10% dialyzed FBS, 0.0632 µM | 130 | 113 | 122
RPMI 5 mM glucose + 10% dialyzed FBS, 0.19 µM | 130 | 121 | 116
RPMI 5 mM glucose + 10% dialyzed FBS, 0.569 µM | 133 | 110 | 94.3
RPMI 5 mM glucose + 10% dialyzed FBS, 1.71 µM | 133 | 103 | 24.4
RPMI 5 mM glucose + 10% dialyzed FBS, 5.12 µM | 52.3 | 20 | 11.2
RPMI 5 mM glucose + 10% dialyzed FBS, 15.4 µM | 35.2 | 6.37 | 5.96
RPMI 5 mM glucose + 10% dialyzed FBS, 46.1 µM | 24.2 | 2.85 | 3.77

AUC of viability dose-response curve
Settings | NOMO1 [6] | P12-Ichikawa [4] | SEM cells [5]
HPLM + 10% dialyzed FBS | 348 | 326 | 380
RPMI 5 mM glucose + 10% FBS | 391 | 372 | 276
RPMI 5 mM glucose + 10% dialyzed FBS | 395 | 366 | 320

From the supplement of paper PMC11451515
